The Ki is the equilibrium dissociation constant of an inhibitor or competing ligand from its target. What is called IC50 is the concentration that inhibits the measured activity by half.

Where two headings read alike, the source gives them in different places.

This is an account of results in PMC9105972 (International Journal of Molecular Sciences, 2022).

The subject of assay [1] is AChE. The following applies: in vivo, rats, mice and rabbits; cited from earlier work.
Assay [2] has as its target AChE from Torpedo californica (TcAChE). The settings on record: cited from earlier work.
Assay [3] deals with human brain AChE (HuAChE). The settings on record: cited from earlier work.
Assay [4] relates to AChE. The settings on record: cited from earlier work.
A further assay concerns the target T1, TcAChE (Tetronarce californica, UniProt P04058).
T1 construct: TcAChE was isolated and purified as previously described; from tissue
Briefly: Pre-steady-state analysis by global fitting of full progress curves (ENZO). It is filed as biochemical, Torpedo californica.

T1 sequence (P04058 22-586): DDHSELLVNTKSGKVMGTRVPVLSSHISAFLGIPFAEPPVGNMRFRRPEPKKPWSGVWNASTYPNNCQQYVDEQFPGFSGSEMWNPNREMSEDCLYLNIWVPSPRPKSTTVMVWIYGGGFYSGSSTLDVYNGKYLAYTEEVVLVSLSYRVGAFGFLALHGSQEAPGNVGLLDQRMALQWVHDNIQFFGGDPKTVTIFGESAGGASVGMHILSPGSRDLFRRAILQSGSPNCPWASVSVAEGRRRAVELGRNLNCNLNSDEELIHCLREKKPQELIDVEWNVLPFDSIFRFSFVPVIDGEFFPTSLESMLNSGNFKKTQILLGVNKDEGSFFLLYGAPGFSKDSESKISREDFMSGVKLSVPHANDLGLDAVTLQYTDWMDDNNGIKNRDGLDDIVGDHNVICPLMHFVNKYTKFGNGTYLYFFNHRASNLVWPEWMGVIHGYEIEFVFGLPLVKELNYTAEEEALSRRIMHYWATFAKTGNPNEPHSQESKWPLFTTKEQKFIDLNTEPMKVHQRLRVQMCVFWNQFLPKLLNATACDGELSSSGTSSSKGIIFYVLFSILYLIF

As to `COc1ccc2c3c1O[C@H]1C[C@@H](O)C=C[C@@]31CCN(C)C2` [GAL, galantamine], the “times weaker AChE inhibitor than donepezil” value in the assay with AChE [1] is listed as […]. The Ki in assay [2] is 200 nM; in assay [3] (human brain AChE, competitive inhibition, 1976), 52 nM; in assay [3] (recombinant form of HuAChE, 2003), 520 nM. The figures for the 50% inhibitory concentration (IC50) with AChE [4] (highest of 15 BRENDA entries) and with AChE [4] (lowest of 15 BRENDA entries) were […] and […], respectively.
For `C[N+](C)(C)CCSSc1ccc([N+](=O)[O-])c(C(=O)[O-])c1` [thiocholine-TNB, thiocholine-thionitrobenzoic acid], the Ki at TcAChE (TcAChE 200 pM, ATCh 35 µM, initial thiocholine-TNB 0 to ~150 µM, competitive, read-out: Ki for product inhibition) amounted to 21500 ± 380 nM. In addition, on TcAChE (fit of full progress curves), the inhibition mechanism result is recorded as “competitive inhibition mechanism”.
